Experimental data: patent US5250416A, “Method for highly sensitive determination of NADH using kinase” (Noda Institute for Scientific Rsearch, priority 1991, dated 1993)

What was measured:
[1] = test system: NADH kinase (the present enzyme); assay: Inhibition, activation and stabilization of the present enzyme; format: biochemical, Pichia membranaefaciens
NADH kinase B = molecular target: T1, NADH kinase B (Saccharomyces cerevisiae, UniProt Q06892); details: as substrate of NADH kinase B; from reference; cited from earlier work
T1 sequence (Q06892 1-414): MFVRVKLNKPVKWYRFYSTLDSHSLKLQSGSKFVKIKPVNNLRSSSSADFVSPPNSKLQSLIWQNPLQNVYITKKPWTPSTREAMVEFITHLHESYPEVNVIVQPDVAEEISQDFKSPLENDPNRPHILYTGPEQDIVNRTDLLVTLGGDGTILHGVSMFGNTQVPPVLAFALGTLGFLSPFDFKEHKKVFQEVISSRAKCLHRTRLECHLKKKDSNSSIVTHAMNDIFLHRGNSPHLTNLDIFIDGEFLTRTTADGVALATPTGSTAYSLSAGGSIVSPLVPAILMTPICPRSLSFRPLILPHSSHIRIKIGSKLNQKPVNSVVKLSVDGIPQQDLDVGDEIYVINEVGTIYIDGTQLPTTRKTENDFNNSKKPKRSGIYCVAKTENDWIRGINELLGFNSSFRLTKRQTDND

NADH kinase A = molecular target: T2, NADH kinase A (Saccharomyces cerevisiae, UniProt Q06892); details: as substrate of NADH kinase A; from reference; cited from earlier work
T2 sequence (Q06892 1-414): T1 sequence (Q06892 1-414)

[2] = test system: NADH kinase (the present enzyme); assay: Substrate specificity of the present enzyme (NADH kinase); format: biochemical, Pichia membranaefaciens; details: for Relative activity (%): as substrate of the present enzyme, 30° C., 20 minutes, pH 8.5, relative to NADH = 100; for Action of the present enzyme on the substrate (in words): substrate specificity
Procedure: The substrate specificity of the present enzyme was examined under the following reaction conditions.
To 0.9 ml of each of the substrate solutions containing NADH or NAD^+, respectively, shown in Table 1 was added 0.1 ml of 23 U/ml of the present enzyme, and the reaction was carried out at 30° C. for 20 minutes. Then, the reaction was terminated by heat treatment at 100° C. for 2 minutes, and the denatured protein was removed, after which the amount of NADPH or NADP^+ produced by the reaction of the corresponding substrate was measured as follows. As a control solution, there was used a mixture of each substrate solution and the present enzyme in which the reaction had been terminated immediately after mixing them.
With 1 ml of each of the reaction solutions obtained in the above was mixed 1 ml of a color-producing solution consisting of 10 mM G-6-P, 50 mM HEPPS buffer (pH 8.0), 10 mM magnesium chloride, 0.1% bovine serum albumin, 2.5 IU/ml G-6-P dehydrogenase (NADP^+ -dependent), 5 IU/ml diaphorase and 250 μM 2,6-dichlorophenolindophenol. The resulting mixture was immediately introduced into a constant-temperature cuvette of STASAR III spectrophotometer of Gilford and subjected to reaction at 30° C. Simultaneously with the reaction, the change of absorbance at 600 nm was measured with the lapse of time, and the difference (ΔOD600nm /min) between absorbance values 1 minute and 2 minutes after the initiation of the coloration reaction was taken as a measured value. As to the relative activity (%), a measured value (ΔOD600nm /min) obtained by using NAD^+ as substrate was shown as a percentage based on a measured value (ΔOD600nm /min) obtained by using NADH as substrate.

[3] = test system: NADH kinase (the present enzyme); assay: Km value (Michaelis constant) of the present enzyme for NADH; format: biochemical, Pichia membranaefaciens; details: 30° C., pH 7.8 (Tris buffer)
Procedure: 0.9 Milliliters of the substrate solution containing NADH shown in Table 2 was preheated to 30° C., after which 0.1 ml of a solution of the present enzyme having an adequate concentration was added, and the reaction was carried out at 30° C. for 20 minutes. Thereafter, the reaction was terminated by heat treatment at 100° C. for 2 minutes, and the denatured protein was removed. Then, the amount of NADPH produced by the reaction of the substrate was measured as follows. As a control solution, there was used a mixture of the substrate solution and the present enzyme in which the reaction had been terminated immediately after mixing them.
With 1 ml of each of the reaction solutions obtained in the above was mixed 1 ml of a color-producing solution having the same composition as that of the color-producing solution described in the above item "Substrate specificity". […] Simultaneously with the reaction, the change of absorbance at 600 nm was measured with the lapse of time, and the difference (ΔOD600nm /min) between absorbance values 1 minute and 2 minutes after the initiation of the coloration reaction was obtained as a measured value. By the use of a calibration curve of ΔOD600nm /min versus NADPH concentration previously prepared using NADPH solutions of known concentrations, the amount of the NADPH produced was calculated from the measured value.

Row | SMILES | Stabilization of the present enzyme [1] | Specificity (relative activity, NADH = 100) (NADH kinase B) | Specificity (relative activity, NADH = 100) (NADH kinase A) | Relative activity (%) [2] [%] | Action of the present enzyme on the substrate (in words) [2] | Km [3] [µM]
1 | O[C@H](CS)[C@H](O)CS (racemic) [dithiothreitol] | stabilized | – | – | – | – | –
2 | CC(=O)N[C@@H](CS)C(=O)O [N-acetyl-L-cysteine] | stabilized | – | – | – | – | –
3 | NC(=O)C1=CN([C@@H]2O[C@H](COP(=O)(O)OP(=O)(O)OC[C@H]3O[C@@H](n4cnc5c(N)ncnc54)[C@H](O)[C@@H]3O)[C@@H](O)[C@H]2O)C=CC1 [NADH] | – | 100 | 100 | 100 | very high specificity | 27
4 | NC(=O)c1ccc[n+]([C@@H]2O[C@H](COP(=O)([O-])OP(=O)(O)OC[C@H]3O[C@@H](n4cnc5c(N)ncnc54)[C@H](O)[C@@H]3O)[C@@H](O)[C@H]2O)c1 [NAD^+] | – | 1.6 | 1.7 | 0.9 | hardly acts | –
